Legend:
[1] = Kinetic solubility in 50 mM phosphate buffer (pH 7.4); type: physicochemical; conditions: comparison in words, data of Table 3
Method: 10 μL of 10 mM in DMSO of test and control compounds was added into lower chambers of whatman miniuniprep vials, respectively. 490 μL of 50 mM PB (pH 7.4) was added into lower chambers of the whatman miniuniprep vials, respectively. The solubility samples were vortexted for at least 2 minutes. The miniuniprep vials were shaken on a shaker for 24 hours at room temperature at the speed of 800 rpm and then centrifuged for 20 minutes (eg. 4000 rpm). The miniunipreps were compressed to prepare the filtrates for injection into HPLC system to calculate the concentration with standard curve.

[2] = tested on: Caco-2 cells; experiment: Permeability in Caco-2 Assay; type: in vitro ADME; conditions: comparison in words, data of Table 4
Method: Permeability of test compounds was determined in Caco-2 Assay. Caco-2 cells purchased from ATCC were seeded onto […] (PET) in 96-well Corning Insert plates at 1×10^5 cells/cm2, and refreshed medium every 4˜5 days until to the 21st to 28th day for confluent cell monolayer formation. The transport buffer in the study was HBSS with 10.0 mM HEPES at pH 7.40±0.05. Test compound was tested at 2.00 μM bi-directionally in duplicate. Digoxin was tested at 10.0 μM bi-directionally in duplicate, while nadolol and metoprolol were tested at 2.00 μM in A to B direction in duplicate. Final DMSO concentration was adjusted to less than 1%. The plate was incubated for 2 hours in CO2 incubator at 37±1° C., with 5% CO2 at saturated humidity without shaking. And all samples after mixed with acetonitrile containing internal standard were centrifuged at 3200×g for 10 min. For nadolol and metoprolol, 200 μL supernatant solution was diluted with 600 μL ultra-pure water for LC-MS/MS analysis. For digoxin and test compounds, 200 μL supernatant solution was diluted with 200 μL ultra-pure water for LC-MS/MS analysis. Concentrations of test and control compounds in starting solution, donor solution, and receiver solution were quantified by LC-MS/MS methodologies, using peak area ratio of analyte/internal standard. […]

COc1cccc(OC)c1S(=O)(=O)Nc1noc2cc(Oc3nccs3)c3c(c12)OCCC3 [Compound 35, 2,6-dimethoxy-N-(5-(thiazol-2-yloxy)-3,4-dihydro-2H-chromeno[8,7-d]isoxazol-9-yl)benzenesulfonamide]
kinetic solubility compared with otherwise identical compound having X as carbon [1]: improved kinetic solubility | permeability compared with reference compound [2]: improved permeability
